For 54 molecules, IC50 results are on record in patent publication US10239843B2 (CANCER RESEARCH TECHNOLOGY LIMITED, priority 2014, dated 2019).

As a reminder, the IC50 is the midpoint of a concentration-inhibition curve.

In the first assay the target is Human Full Length PARG (Homo sapiens (Human), UniProt Q86W56). Description: PARG enzyme assay (TR-FRET). It is filed as biochemical. To be noted: read-out: PARG Biochem IC50.
Chain of Human Full Length PARG (Q86W56 whole entry): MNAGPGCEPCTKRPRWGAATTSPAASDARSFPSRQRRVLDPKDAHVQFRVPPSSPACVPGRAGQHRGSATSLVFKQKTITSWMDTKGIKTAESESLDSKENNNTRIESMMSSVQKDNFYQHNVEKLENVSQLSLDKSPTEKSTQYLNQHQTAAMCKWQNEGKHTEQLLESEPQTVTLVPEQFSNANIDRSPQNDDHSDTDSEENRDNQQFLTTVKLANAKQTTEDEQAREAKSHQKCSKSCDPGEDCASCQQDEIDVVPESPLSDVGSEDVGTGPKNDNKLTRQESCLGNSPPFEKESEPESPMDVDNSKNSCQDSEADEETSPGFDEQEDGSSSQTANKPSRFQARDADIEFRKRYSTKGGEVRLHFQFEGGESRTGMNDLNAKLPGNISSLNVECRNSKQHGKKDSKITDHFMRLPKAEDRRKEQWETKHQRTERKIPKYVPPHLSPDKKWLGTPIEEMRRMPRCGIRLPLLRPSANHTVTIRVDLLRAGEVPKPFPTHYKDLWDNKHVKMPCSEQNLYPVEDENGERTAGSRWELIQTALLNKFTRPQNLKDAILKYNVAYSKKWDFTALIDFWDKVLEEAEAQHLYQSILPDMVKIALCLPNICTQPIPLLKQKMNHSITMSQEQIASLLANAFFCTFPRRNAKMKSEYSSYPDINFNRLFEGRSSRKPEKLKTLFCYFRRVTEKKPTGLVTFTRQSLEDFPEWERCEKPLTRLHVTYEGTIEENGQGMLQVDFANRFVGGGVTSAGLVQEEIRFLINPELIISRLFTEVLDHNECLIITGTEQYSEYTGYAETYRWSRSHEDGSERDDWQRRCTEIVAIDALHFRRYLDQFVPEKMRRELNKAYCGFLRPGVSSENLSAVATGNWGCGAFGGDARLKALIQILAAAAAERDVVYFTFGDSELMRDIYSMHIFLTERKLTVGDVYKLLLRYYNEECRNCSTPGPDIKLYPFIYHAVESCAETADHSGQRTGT
`Cn1c(=O)n(Cc2nnc(C(F)(F)F)o2)c(=O)c2cc(S(=O)(=O)NC3(C)CC3)ccc21` [Example 501, 1-Methyl-N-(1-methylcyclopropyl)-2,4-dioxo-3-[[5-(trifluoromethyl)-1,3,4-oxadiazol-2-yl]methyl]quinazoline-6-sulfonamide]: the IC50 worked out at 1610 nM. Take `COCCn1c(=O)n(Cc2cc(C)no2)c(=O)c2cc(S(=O)(=O)NC3(CF)CC3)ccc21` [Example 527, N-[1-(Fluoromethyl)cyclopropyl]-1-(2-methoxyethyl)-3-[(3-methylisoxazol-5-yl)methyl]-2,4-dioxo-quinazoline-6-sulfonamide]: the IC50 stood at 208 nM. As for `Cn1c(=O)[nH]c(=O)c2cc(S(=O)(=O)NC3(CF)CC3)ccc21` [Example 512, N-[1-(Fluoromethyl)cyclopropyl]-1-methyl-2,4-dioxo-quinazoline-6-sulfonamide], the IC50 came to 2950 nM.

In the case of `CC(C)c1nnsc1Cn1c(=O)c2cc(S(=O)(=O)NC3(C)CC3)ccc2n(C)c1=O` [Example 509, 3-[(4-Isopropylthiadiazol-5-yl)methyl]-1-methyl-N-(1-methylcyclopropyl)-2,4-dioxo-quinazoline-6-sulfonamide], the IC50 was determined as 7220 nM. Consider `Cn1c(=O)n(Cc2ccns2)c(=O)c2cc(S(=O)(=O)NC3(C)CC3)ccc21` [Example 510, 3-(Isothiazol-5-ylmethyl)-1-methyl-N-(1-methylcyclopropyl)-2,4-dioxo-quinazoline-6-sulfonamide], for which the IC50 is 2290 nM. The same measure, in the same setting: the value for `Cn1c(=O)n(CCc2ccccn2)c(=O)c2cc(S(=O)(=O)NC3(C)CC3)ccc21` [Example 498, 1-Methyl-N-(1-methylcyclopropyl)-2,4-dioxo-3-[2-(2-pyridyl)ethyl]quinazoline-6-sulfonamide] was 3920 nM; that for `Cn1c(=O)n(CC(=O)c2cccs2)c(=O)c2cc(S(=O)(=O)NC3(C)CC3)ccc21` [Example 529, 1-Methyl-N-(1-methylcyclopropyl)-2,4-dioxo-3-[2-oxo-2-(2-thienyl)ethyl]quinazoline-6-sulfonamide] was 1050 nM.

The assay is the same for the next values; noted with them: read-out: PARG Biochem IC50 Geomean.
In the case of `Cc1cc(Cn2c(=O)n(C)c(=O)c3cc(S(=O)(=O)NC4(C)CC4)ccc32)no1` [Example 105], the IC50 was determined as 1430 nM. For the molecule `Cc1cc(Cn2c(=O)[nH]c3ccc(S(=O)(=O)NC4(C)CC4)cc3c2=O)on1` [Example 221, N-(1-methylcyclopropyl)-3-[(3-isoxazol-5-yl)methyl]-2,4-dioxo-1H-quinazoline-6-sulfonamide], the IC50 amounted to 649 nM. In the case of `Cn1c(=O)n(Cc2cnc(Cl)s2)c(=O)c2cc(S(=O)(=O)NC3(C)CC3)ccc21` [Example 144], the IC50 worked out at 1600 nM. `CC1(NS(=O)(=O)c2ccc3[nH]c(=O)n(CC(N)=O)c(=O)c3c2)CC1` [Example 223, 2-[6-[(1-Methylcyclopropyl)sulfamoyl]-2,4-dioxo-1H-quinazolin-3-yl]acetamide]: the IC50 is 7470 nM.

Regarding `Cn1c(=O)c2cc(S(=O)(=O)NC3(C)CC3)ccc2n(Cc2c(F)cccc2F)c1=O` [Eample 75], the IC50 came out at 714 nM. On to `Cn1c(=O)c2cc(S(=O)(=O)NC3(C)CC3)ccc2n(CC(=O)c2ccc(N3CCCC3)cc2)c1=O` [Example 117], for which the IC50 turned out to be 4810 nM. On the same count and under the same terms, with `Cc1cc(Cn2nc(OC3CCC3)c3ccc(S(=O)(=O)NC4(C)CC4)cc3c2=O)on1` [Example 319] the figure was 859 nM; with `Cn1c(=O)c2cc(S(=O)(=O)NC3(C)CC3)ccc2n(CC(=O)c2ccc(O)cc2)c1=O` [Example 107], 8940 nM; with `Cn1c(=O)c(=O)n(Cc2ccccc2)c2ccc(S(=O)(=O)NC3(C)CC3)cc21` [Example 40, 1-Benzyl-4-methyl-N-(1-methylcyclopropyl)-2,3-dioxo-quinoxaline-6-sulfonamide], 2790 nM. Turning to `CC#CCn1c(=O)n(C)c(=O)c2cc(S(=O)(=O)NC3(C)CC3)ccc21` [Example 136], the IC50 was 1110 nM. Same read-out and setting: with `CNc1nn(C)c(=O)c2cc(S(=O)(=O)NC3(C)CC3)ccc12` [Example 234, 3-Methyl-1-(methylamino)-N-(1-methylcyclopropyl)-4-oxo-phthalazine-6-sulfonamide] the figure was 1980 nM; with `Cn1cncc1Cn1c(=O)c2cc(S(=O)(=O)NC3(C)CC3)ccc2n(C)c1=O` [Example 154], 3310 nM; with `Cc1cc(Cn2cc(C)c3ccc(S(=O)(=O)NC4(C)CC4)cc3c2=O)on1` [Example 256, 4-Methyl-N-(1-methylcyclopropyl)-2-[(3-methylisoxazol-5-yl)methyl]-1-oxo-isoquinoline-7-sulfonamide], 1280 nM. Same read-out and setting: with `Cc1cc(Cn2cc(C#CCN(C)C)c3ccc(S(=O)(=O)NC4(C)CC4)cc3c2=O)on1` [Example 286, 4-[3-(Dimethylamino)prop-1-ynyl]-N-(1-methylcyclopropyl)-2-[(3-methylisoxazol-5-yl)methyl]-1-oxo-isoquinoline-7-sulfonamide] the figure was 842 nM; with `Cc1cc(Cn2c(=O)c3cc(S(=O)(=O)NC4(C)CC4)ccc3n(C)c2=O)no1` [Example 103], 5190 nM.

Regarding `Cc1csc(Cn2c(=O)c3cc(S(=O)(=O)NC4(C)CC4)ccc3n(C)c2=O)n1` [Example 150], the IC50 came to 4780 nM.

As for `Cc1cc(Cn2nc(C3CCCC3)c3ccc(S(=O)(=O)NC4(C)CC4)cc3c2=O)on1` [Example 309], the IC50 stood at 2520 nM. For `Cc1cc(Cn2cc(CCCN(C)C)c3ccc(S(=O)(=O)NC4(C)CC4)cc3c2=O)on1` [Example 287, 4-[3-(dimethylamino)propyl]-N-(1-methylcyclopropyl)-2-[(3-methylisoxazol-5-yl)methyl]-1-oxo-isoquinoline-7-sulfonamide], the IC50 turned out to be 1070 nM. With `Cc1cc(C)cc(Cn2c(=O)n(C)c(=O)c3cc(S(=O)(=O)NC4(C)CC4)ccc32)c1` [Example 77], the IC50 stood at 1680 nM. Take `Cc1cc(Cn2cc(Br)c3ccc(S(=O)(=O)NC4(C)CC4)cc3c2=O)on1` [Example 307, 4-Bromo-N-(1-methylcyclopropyl)-2-[(3-methylisoxazol-5-yl)methyl]-1-oxo-isoquinoline-7-sulfonamide]: the IC50 stood at 2680 nM. On to `Cc1cccc(Cn2c(=O)n(C)c(=O)c3cc(S(=O)(=O)NC4(C)CC4)ccc32)c1` [Example 57], for which the IC50 came to 1110 nM. In the case of `CCN(CC)c1ccc(C(=O)Cn2c(=O)c3cc(S(=O)(=O)NC4(C)CC4)ccc3n(C)c2=O)cc1` [Example 110], the IC50 is 6700 nM. Take `Cc1cc(Cn2nc(C(=O)O)c3ccc(S(=O)(=O)NC4(C)CC4)cc3c2=O)on1` [Example 302, 6-(N-(1-Methylcyclopropyl)sulfamoyl)-3-((3-methylisoxazol-5-yl)methyl)-4-oxo-3,4-dihydrophthalazine-1-carboxylic acid]: the half-inhibitory concentration (IC50) worked out at 6720 nM. On to `COc1cc(Cn2c(=O)n(C)c(=O)c3cc(S(=O)(=O)NC4(C)CC4)ccc32)cc(OC)c1` [Example 78], for which the IC50 worked out at 621 nM. Turning to `Cn1c(=O)c2cc(S(=O)(=O)NC3(C)CC3)ccc2n(Cc2nc3ccccc3[nH]2)c1=O` [Example 116], the IC50 turned out to be 1050 nM. In the case of `CN(C)CCn1cc(Cn2c(=O)c3cc(S(=O)(=O)NC4(C)CC4)ccc3n(C)c2=O)cn1` [Example 219], the IC50 was determined as 2480 nM. Regarding `Cn1cc(NC(=O)Cn2c(=O)n(C)c(=O)c3cc(S(=O)(=O)NC4(C)CC4)ccc32)cn1` [Example 106], the 50% inhibitory concentration (IC50) amounted to 3880 nM.

`CCn1c(=O)c2cc(S(=O)(=O)NC3(C)CC3)ccc2n(CC2CCCCC2)c1=O` [Example 13]: the IC50 turned out to be 3100 nM. For `Cc1nc(C)c(Cn2c(=O)n(C)c(=O)c3cc(S(=O)(=O)NC(C)(C)C)ccc32)s1` [Example 202], the IC50 turned out to be 1390 nM. Same read-out and setting: the value for `Cn1c(=O)c2cc(S(=O)(=O)NC3(C)CC3)ccc2n(CC#N)c1=O` [Example 175] was 4410 nM; that for `Cn1c(=O)n(Cc2ccno2)c(=O)c2cc(S(=O)(=O)NC3(C)CC3)ccc21` [Example 226] was 1180 nM. Take `Cn1c(=O)n(CC(=O)N2CCC[C@H]2C(N)=O)c(=O)c2cc(S(=O)(=O)NC3(C)CC3)ccc21` [Example 86]: the IC50 amounted to 5470 nM. For the molecule `Cc1cc(Cn2nc(C(=O)NCC3CCOCC3)c3ccc(S(=O)(=O)NC4(C)CC4)cc3c2=O)on1` [Example 331], the IC50 worked out at 795 nM.

Regarding `CC1(NS(=O)(=O)c2ccc3[nH]c(=O)[nH]c(=O)c3c2)CC1` [Example 1], the IC50 came to 9170 nM. As for `CCn1c(=O)c2cc(S(=O)(=O)NC3(C)CC3)ccc2n(CCOC)c1=O` [Example 17], the IC50 worked out at 1570 nM. Same read-out and setting: with `Cc1cc(Cn2c(=O)c3cc(S(=O)(=O)NC4(C)CC4)ccc3n(CCN3CCN(C)CC3)c2=O)on1` [Example 341] the figure was 511 nM; with `Cn1c(=O)n(CC2CC2)c(=O)c2cc(S(=O)(=O)NC3(C)CC3)ccc21` [Example 20], 4650 nM. As to `Cn1c(=O)c2cc(S(=O)(=O)NC3(C)CC3)ccc2n(Cc2c(Cl)cccc2Cl)c1=O` [Example 74], the IC50 is 2100 nM.

Take `CC(C)Cc1nc2ccc(S(=O)(=O)NC3(C)CC3)cc2c(=O)n1C` [Example 81]: the 50% inhibitory concentration (IC50) came out at 1840 nM. Turning to `Cc1cc(Cn2c(=O)c3cc(S(=O)(=O)NC4(C)CC4)ccc3n(CC(C)O)c2=O)on1` (stereo not drawn) [Example 338], the IC50 came out at 523 nM. On the same count and under the same terms, the value for `CCn1c(=O)c2cc(S(=O)(=O)NC3(C#N)CC3)ccc2n(CC)c1=O` [Example 5] was 1820 nM. On to `C#CCn1cc(Cn2c(=O)c3cc(S(=O)(=O)NC4(C)CC4)ccc3n(C)c2=O)cn1` [Example 216], for which the IC50 is 560 nM. Take `CCOC(=O)C(F)n1c(=O)n(Cc2cc(C)no2)c(=O)c2cc(S(=O)(=O)NC3(C)CC3)ccc21` (stereo not drawn) [Example 335]: the half-maximal inhibitory concentration (IC50) worked out at 1050 nM.

With `Cc1cc(Cn2c(=O)c3cc(S(=O)(=O)NC4(C)CC4)cnc3n(C)c2=O)on1` [Example 205], the IC50 came to 2600 nM. For `Cc1nc(-c2ccccc2)c(Cn2c(=O)n(C)c(=O)c3cc(S(=O)(=O)NC4(C)CC4)ccc32)s1` [Example 134], the IC50 stood at 760 nM. As to `Cc1cc(Cn2nc(C(=O)NCC3CCN(C)CC3)c3ccc(S(=O)(=O)NC4(C)CC4)cc3c2=O)on1` [Example 333], the IC50 was 781 nM. Take `Cn1c(=O)c2cc(S(=O)(=O)NC3(C)CC3)ccc2n(CC2CCOC2)c1=O` (stereo not drawn) [Example 37]: the IC50 is 1480 nM.
